# Earlier results in patent publication US8575155B2, “Composition and method to modify sperm function and increase male gender ratio in mammals” (priority 2008, dated 2013).
# Columns and labels:
# [1] = system: bovine oocytes
# [2] = system: early-staged mouse embryos
structure (smiles),measurement,setting,value
"CCN(CC)c1cc2c(cc1C)Nc1ccc(N)cc1O2 [BCB, 2-methyl-3-diethylamino-7-amino phenoxazine]",increase in oxidation of glucose through the HMS,[1],15 fold
same,increase in glucose oxidation through glycolysis,[1]; compared with the increase through the HMS,somewhat less increase
same,toxicity of BCB and its metabolites,[2],relatively non-toxic
